This note sets out measurements from patent US20250171451A1, “NOVEL HETEROCYCLIC COMPOUND AND PHARMACEUTICAL COMPOSITION COMPRISING SAME” (Samjin Pharmaceutical Co., Ltd., priority 2022, published 2025).

Some results are limits rather than exact numbers.

Experiment [1] has as its system TEAD response element (TRE) luciferase reporter in MCF-7 cell lines. Briefly: TEAD response element (TRE) reporter assay. Type of experiment: cell-based. The settings on record: 0.2 μM compound, 24 hours, MCF-7 TEAD reporter cells, relative to vehicle (1% DMSO); for inhibition at 0.2 µM: Homo sapiens, MCF7. Summed up:
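MCF-7 cells stably carrying a TRE-driven firefly luciferase reporter, treated 24 h after plating with compound at 0.2 μM final (1% DMSO) in serum-free medium for 24 h. Luminescence expressed relative to vehicle control set at 10000.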
On the technique in general: Reporter assays use an easily measured gene product as a stand-in for the process of interest.

Experiment [2] concerns the target T1, recombinant GST-TEAD1 proteins (209 to 426 a.a.) (Homo sapiens, UniProt P28347).
T1 construct: recombinant GST-TEAD1 proteins (209 to 426 a.a.)
Briefly: Evaluation of palmitoylation of TEAD protein. Type of experiment: biochemical. The settings on record: 5 μM compound, 15 minutes preincubation, 3 μM alkyne palmitoyl-CoA 30 minutes, pH 6.4, vs DMSO control. Summed up: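 GST-TEAD1 (aa 209–426) preincubated 15 min with 5 μM compound, then autopalmitoylated 30 min with 3 μM alkyne palmitoyl-CoA in 50 mM MES pH 6.4; stopped with 1% SDS. Click biotinylation, SDS-PAGE and streptavidin-HRP blot; band intensity relative to DMSO control, normalised to anti-GST signal.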

Experiment [3] deals with NF2-deficient mesothelioma cell line NCI-H226. Briefly: Evaluation of inhibition of cancer cell proliferation (CellTiter-Glo). The class given is cell-based. The settings on record: Homo sapiens, 120 h, NCI-H226 cells, five days treatment, 2% FBS, read-out: Cancer cell growth inhibition NCI-H226 (GI50). The procedure:
The NF2-deficient mesothelioma cell line NCI-H226 was purchased from ATCC (#CRL-5826). NCI-H226 cells were cultured in RRPMI medium (ATCC) containing penicillin (100 units/mL), streptomycin (100 μg/mL) and 10% fetal bovine serum (FBS) at 37° C. and 5% CO2.
In 24 hours after dispensing said NCI-H226 cells into a 96-well plate, the cell culture medium was removed all, and then each compound corresponding to a certain concentration section (0.01, 0.05, 0.1, 0.5, 1, 5, 10 μM) or a vehicle solvent (final 1% DMSO) was diluted with a culture medium containing 2% FBS, treated at 100 μL for each well, and then cultured at 37° C. and 5% CO2. In five days after said treatment, CellTiter-Glo@2.0 Reagent (Promega) was treated in the same amount as the culture medium to measure cell growth, and placed in a shaker for two minutes so as to be well mixed, after which the plate was cultured at room temperature for ten minutes to stabilize a luminescence signal. After that, for ATP measurement through an intracellular luciferase reaction, the luminescence signal was measured using a microplate reader (TECAN). The value of the […] (GI50) at the moment when the cell proliferation was reduced by half was derived using the SoftMax Pro 5.4.1 program, and the results are shown in table 10 below.
In general terms: ATP-based viability assays read luminescence as a measure of living cells.

T1 sequence (P28347 209-426): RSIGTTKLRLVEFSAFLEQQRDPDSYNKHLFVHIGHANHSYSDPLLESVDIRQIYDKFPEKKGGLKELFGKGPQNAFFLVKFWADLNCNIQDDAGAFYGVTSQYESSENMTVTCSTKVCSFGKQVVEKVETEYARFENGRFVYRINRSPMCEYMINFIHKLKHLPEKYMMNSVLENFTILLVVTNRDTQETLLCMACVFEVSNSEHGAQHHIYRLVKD

The inhibition is the change of the read-out against control, counted positive when it falls. Usually GI50 stands for the concentration giving 50% growth inhibition. Take `C=CC(=O)Nc1cnc2c(c1)c(C)cn2Cc1ccc(C(F)(F)F)cc1` [Compound 3, N-(3-methyl-1-(4-(trifluoromethyl)benzyl)-1H-pyrrolo[2,3-b]pyridin-5-yl)acrylamide]: in experiment [1], the inhibition at 0.2 µM was above 50%. The inhibition at 5 µM in experiment [2] was above 80%. Besides, the GI50 in experiment [3] stood at 70 nM.
For `C=CC(=O)Nc1cnc2c(c1)c(C)cn2-c1ccc(C(F)(F)F)cc1` [Compound 27, N-(3-methyl-1-(4-(trifluoromethyl)phenyl)-1H-pyrrolo[2,3-b]pyridin-5-yl)acrylamide], the inhibition at 0.2 µM in experiment [1] was above 50%. For the same compound, in experiment [2], the inhibition at 5 µM was above 80%. Also, the GI50 in experiment [3] worked out at 80 nM.
Regarding `C=CC(=O)Nc1cnc2c(c1)c(Br)cn2Cc1ccc(C(F)(F)F)cc1` [Compound 40, N-(3-bromo-1-(4-(trifluoromethyl)benzyl)-1H-pyrrolo[2,3-b]pyridin-5-yl)acrylamide], the inhibition at 0.2 µM in experiment [1] was above 50%. Further, the inhibition at 5 µM in experiment [2] is above 80%. Further, in experiment [3], the GI50 worked out at 220 nM.
For `C=CC(=O)Nc1cnc2c(c1)c(C)nn2-c1ccc(C(F)(F)F)cc1` [Compound 42, N-(3-methyl-1-(4-(trifluoromethyl)phenyl)-1H-pyrazolo[3,4-b]pyridin-5-yl)acrylamide], in that order: above 50%, above 80% and 10 nM.
With `C=CC(=O)Nc1cnc2c(c1)c(Cl)cn2Cc1ccc(C(F)(F)F)cc1` [Compound 43, N-(3-chloro-1-(4-(trifluoromethyl)benzyl)-1H-pyrrolo[2,3-b]pyridin-5-yl)acrylamide], in experiment [1], the inhibition at 0.2 µM is above 50%. For the same compound, the inhibition at 5 µM in experiment [2] was above 80%. In experiment [3], the GI50 turned out to be 220 nM.
For the compound `C=CC(=O)Nc1cnc2c(c1)c(C)cn2-c1cccc(C(F)(F)F)c1` [Compound 50, N-(3-methyl-1-(3-(trifluoromethyl)phenyl)-1H-pyrrolo[2,3-b]pyridin-5-yl)acrylamide], in experiment [1], the inhibition at 0.2 µM is above 50%. The inhibition at 5 µM in experiment [2] is above 80%. For the same compound, in experiment [3], the GI50 amounted to 280 nM.
For `C=CC(=O)Nc1cnc2c(c1)c(C)cn2-c1ccc(Cl)cc1` [Compound 54, N-(1-(4-chlorophenyl)-3-methyl-1H-pyrrolo[2,3-b]pyridin-5-yl)acrylamide], in that order: above 50%, 40 to 80% and 170 nM.
On to `C=CC(=O)Nc1cnc2c(c1)c(C)nn2-c1ccc(Cl)cc1` [Compound 65, N-(1-(4-chlorophenyl)-3-methyl-1H-pyrazolo[3,4-b]pyridin-5-yl)acrylamide], for which the inhibition at 0.2 µM in experiment [1] is above 50%. For the same compound, in experiment [2], the inhibition at 5 µM is above 80%. In addition, the GI50 in experiment [3] was 50 nM.
Take `C=CC(=O)Nc1cnc2c(c1)c(C)nn2-c1ccc(OC(F)(F)F)cc1` [Compound 66, N-(3-methyl-1-(4-(trifluoromethoxy)phenyl)-1H-pyrazolo[3,4-b]pyridin-5-yl)acrylamide]: in experiment [1], the inhibition at 0.2 µM was above 50%. Besides, the inhibition at 5 µM in experiment [2] was above 80%. In experiment [3], the GI50 amounted to 50 nM.
Regarding `C=CC(=O)Nc1cnc2c(c1)c(C)nn2-c1ccc(C(F)(F)F)nc1` [Compound 77, N-(3-methyl-1-(6-(trifluoromethyl)pyridin-3-yl)-1H-pyrazolo[3,4-b]pyridin-5-yl)acrylamide], the inhibition at 0.2 µM in experiment [1] was above 50%. Moreover, the inhibition at 5 µM in experiment [2] lay in the range of 40 to 80%. For the same compound, the GI50 in experiment [3] was 30 nM.
`C=CC(=O)N(C)c1cnc2c(c1)c(C)nn2-c1ccc(C(F)(F)F)cc1` [Compound 86, N-methyl-N-(3-methyl-1-(4-(trifluoromethyl)phenyl)-1H-pyrazolo[3,4-b]pyridin-5-yl)acrylamide] registered an inhibition at 0.2 µM in experiment [1] above 50%. Besides, the inhibition at 5 µM in experiment [2] is above 80%. The GI50 in experiment [3] amounted to 30 nM.
For `C=CC(=O)N(C)c1cnc2c(c1)c(C)nn2-c1ccc(OC(F)(F)F)cc1` [Compound 90, N-methyl-N-(3-methyl-1-(4-(trifluoromethoxy)phenyl)-1H-pyrazolo[3,4-b]pyridin-5-yl)acrylamide], in that order: above 50%, above 80% and 30 nM.
Consider `C=CC(=O)N(C)c1cnc2c(c1)c(C)nn2-c1ccc(C(F)(F)F)nc1` [Compound 92, N-methyl-N-(3-methyl-1-(6-(trifluoromethyl)pyridin-3-yl)-1H-pyrazolo[3,4-b]pyridin-5-yl)acrylamide], for which the inhibition at 0.2 µM in experiment [1] is above 50%. For the same compound, the inhibition at 5 µM in experiment [2] is 40 to 80%. Moreover, the GI50 in experiment [3] came out at 50 nM.
The compound `C=CC(=O)Nc1cnc2c(c1)c(C)nn2-c1cnc(C(F)(F)F)nc1` [Compound 95, N-(3-methyl-1-(2-(trifluoromethyl)pyrimidin-5-yl)-1H-pyrazolo[3,4-b]pyridin-5-yl)acrylamide] displayed an inhibition at 0.2 µM in experiment [1] above 50%. Also, the inhibition at 5 µM in experiment [2] was 40 to 80%. The 50% growth inhibitory concentration (GI50) in experiment [3] was 300 nM.
In turn, `C=CC(=O)Nc1cnc2c(c1)c(C)nn2-c1ccc(C(F)(F)F)cn1` [Compound 97, N-(3-methyl-1-(5-(trifluoromethyl)pyridin-2-yl)-1H-pyrazolo[3,4-b]pyridin-5-yl)acrylamide] had an inhibition at 0.2 µM in experiment [1] above 50%. In addition, in experiment [2], the inhibition at 5 µM is below 40%.
For `C=CC(=O)Nc1cnc2c(c1)c(C)nn2-c1ccc(O)cc1` [Compound 98, N-(1-(4-hydroxyphenyl)-3-methyl-1H-pyrazolo[3,4-b]pyridin-5-yl)acrylamide], in that order: below 30% and below 40%.
`C=CC(=O)Nc1cnc2c(c1)c(C)nn2-c1cnc(C(F)(F)F)c(C)c1` [Compound 99, N-(3-methyl-1-(5-methyl-6-(trifluoromethyl)pyridin-3-yl)-1H-pyrazolo[3,4-b]pyridin-5-yl)acrylamide] gave an inhibition at 0.2 µM in experiment [1] above 50%. The inhibition at 5 µM in experiment [2] is 40 to 80%.
In the case of `C=CC(=O)Nc1cnc2c(c1)c(C)nn2-c1ccnc(C(F)(F)F)c1` [Compound 100, N-(3-methyl-1-(2-(trifluoromethyl)pyridin-4-yl)-1H-pyrazolo[3,4-b]pyridin-5-yl)acrylamide], the inhibition at 0.2 µM in experiment [1] is above 50%. Besides, in experiment [2], the inhibition at 5 µM is below 40%.
Consider `C=CC(=O)Nc1cnc2c(c1)c(C)nn2-c1cnn(C(F)(F)F)c1` [Compound 101, N-(3-methyl-1-(1-(trifluoromethyl)-1H-pyrazol-4-yl)-1H-pyrazolo[3,4-b]pyridin-5-yl)acrylamide], for which, in experiment [1], the inhibition at 0.2 µM was above 50%. The inhibition at 5 µM in experiment [2] lay in the range of 40 to 80%.
For `C=CC(=O)Nc1cnc2c(c1)c(C)nn2-c1ccc(N)cc1` [Compound 102, N-(1-(4-aminophenyl)-3-methyl-1H-pyrazolo[3,4-b]pyridin-5-yl)acrylamide], in that order: below 30% and below 40%.
`C=CC(=O)Nc1cnc2c(c1)c(C)nn2-c1ccc(OC(F)(F)F)nc1` [Compound 103, N-(3-methyl-1-(6-(trifluoromethoxy)pyridin-3-yl)-1H-pyrazolo[3,4-b]pyridin-5-yl)acrylamide] yielded an inhibition at 0.2 µM in experiment [1] above 50%. For the same compound, the inhibition at 5 µM in experiment [2] lay within 40 to 80%.
Compound `C=CC(=O)Nc1cnc2c(c1)c(C)nn2-c1ccc(C#N)cc1` [Compound 104, N-(1-(4-cyanophenyl)-3-methyl-1H-pyrazolo[3,4-b]pyridin-5-yl)acrylamide] displayed an inhibition at 0.2 µM in experiment [1] above 50%. Further, the inhibition at 5 µM in experiment [2] is below 40%.
As to `C=CC(=O)Nc1cnc2c(c1)c(C)nn2-c1cc(Cl)c(Cl)cc1C` [Compound 105], in experiment [1], the inhibition at 0.2 µM was above 50%. The inhibition at 5 µM in experiment [2] fell in the range of 40 to 80%. Besides, in experiment [3], the GI50 was found to be 260 nM.
Take “N-(1-(4-(trifluoromethyl)benzyl)-1H-pyrazolo[3,4-b]pyridin-5-yl)acrylamide [Compound 5]”: the “% of inhibition of TRE luciferase at 0.2 μM” value in experiment [1] is “A (>50% inhibition)”. The “% of inhibition of TEAD1 palmitoylation at 5 μM” value in experiment [2] was “A (>80% inhibition)”.
